Test system: MDA-MB-468 multi-cell spheroids, viability
Test: Anticancer human tumor MDA-MB-468 cell line growth inhibition [IpAb];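 further: spheroids exposed to agents for seven days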;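 on viability, T/C: 100% = DMSO vehicle control viability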
Details: for IC50: curve of first compound; for viability, T/C: stronger effect = lower value
Procedure, shortened: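 Multi-cell spheroids of 60% tumour cells, 25% HUVEC and 15% MSC in ultra-low-attachment U-bottom wells, treated with agents combined with ipatasertib or abemaciclib. Half-log ranges top out near clinical Cmax, or 10 microM when Cmax is unknown.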

[1] = second compound 0.1 µM, first compound 0.0316 µM
[2] = second compound 0.1 µM, first compound 0.1 µM
[3] = second compound 0.1 µM, first compound 0.316 µM
[4] = second compound 0.1 µM, first compound 1 µM
[5] = second compound 0.1 µM, first compound 3.16 µM
[6] = second compound 0.1 µM, first compound 10 µM
[7] = second compound 0.316 µM, first compound 0.0316 µM
[8] = second compound 0.316 µM, first compound 0.1 µM
[9] = second compound 0.316 µM, first compound 0.316 µM
[10] = second compound 0.316 µM, first compound 1 µM
[11] = second compound 0.316 µM, first compound 3.16 µM
[12] = second compound 0.316 µM, first compound 10 µM
[13] = second compound 1 µM, first compound 0.0316 µM
[14] = second compound 1 µM, first compound 0.1 µM
[15] = second compound 1 µM, first compound 0.316 µM
[16] = second compound 1 µM, first compound 1 µM
[17] = second compound 1 µM, first compound 3.16 µM
[18] = second compound 1 µM, first compound 10 µM

## Cn1ncc(Cl)c1-c1cc(C(=O)NC(CN)Cc2cccc(F)c2)sc1Cl (stereo not given) + CC(C)NCC(C(=O)N1CCN(c2ncnc3c2C(C)CC3O)CC1)c1ccc(Cl)cc1
Second compound 0.1 µM
  IC50: 366 nM
Second compound 0.316 µM
  IC50: 133 nM
Second compound 1 µM
  IC50: 52.2 nM
Second compound 3.16 µM
  IC50: < 31.6 nM
Second compound 10 µM
  IC50: < 31.6 nM
[1]
  viability, T/C: 71.1%
[2]
  viability, T/C: 64%
[3]
  viability, T/C: 54.8%
[4]
  viability, T/C: 30.3%
[5]
  viability, T/C: 16.1%
[6]
  viability, T/C: 0.14%
[7]
  viability, T/C: 57.7%
[8]
  viability, T/C: 51.5%
[9]
  viability, T/C: 44%
[10]
  viability, T/C: 31.8%
[11]
  viability, T/C: 16.6%
[12]
  viability, T/C: 0.13%
[13]
  viability, T/C: 50.5%
[14]
  viability, T/C: 50.9%
[15]
  viability, T/C: 36.3%
[16]
  viability, T/C: 28.4%
[17]
  viability, T/C: 12.6%
[18]
  viability, T/C: 0.12%
Second compound 3.16 µM, first compound 0.0316 µM
  viability, T/C: 31.8%
Second compound 3.16 µM, first compound 0.1 µM
  viability, T/C: 36.1%
Second compound 3.16 µM, first compound 0.316 µM
  viability, T/C: 31.5%
Second compound 3.16 µM, first compound 1 µM
  viability, T/C: 21.3%
Second compound 3.16 µM, first compound 3.16 µM
  viability, T/C: 10.8%
Second compound 3.16 µM, first compound 10 µM
  viability, T/C: 0.37%
Second compound 10 µM, first compound 0.0316 µM
  viability, T/C: 18.8%
Second compound 10 µM, first compound 0.1 µM
  viability, T/C: 20.4%
Second compound 10 µM, first compound 0.316 µM
  viability, T/C: 17.4%
Second compound 10 µM, first compound 1 µM
  viability, T/C: 17.4%
Second compound 10 µM, first compound 3.16 µM
  viability, T/C: 1.85%
Second compound 10 µM, first compound 10 µM
  viability, T/C: 0.18%

## C=CCn1c(=O)c2cnc(Nc3ccc(N4CCN(C)CC4)cc3)nc2n1-c1cccc(C(C)(C)O)n1 + CCN1CCN(Cc2ccc(Nc3ncc(F)c(-c4cc(F)c5nc(C)n(C(C)C)c5c4)n3)nc2)CC1
Second compound 0.01 µM
  IC50: 467 nM
Second compound 0.0316 µM
  IC50: 461 nM
Second compound 0.1 µM
  IC50: 408 nM
Second compound 0.316 µM
  IC50: 560 nM
Second compound 1 µM
  IC50: 417 nM
Second compound 0.01 µM, first compound 0.0316 µM
  viability, T/C: 108%
Second compound 0.01 µM, first compound 0.1 µM
  viability, T/C: 75.5%
Second compound 0.01 µM, first compound 0.316 µM
  viability, T/C: 72.8%
Second compound 0.01 µM, first compound 1 µM
  viability, T/C: 6.04%
Second compound 0.01 µM, first compound 3.16 µM
  viability, T/C: 2.55%
Second compound 0.01 µM, first compound 10 µM
  viability, T/C: 2.34%
Second compound 0.0316 µM, first compound 0.0316 µM
  viability, T/C: 96.3%
Second compound 0.0316 µM, first compound 0.1 µM
  viability, T/C: 87.9%
Second compound 0.0316 µM, first compound 0.316 µM
  viability, T/C: 71.3%
Second compound 0.0316 µM, first compound 1 µM
  viability, T/C: 6.12%
Second compound 0.0316 µM, first compound 3.16 µM
  viability, T/C: 2.93%
Second compound 0.0316 µM, first compound 10 µM
  viability, T/C: 2.24%
[1]
  viability, T/C: 121%
[2]
  viability, T/C: 93.1%
[3]
  viability, T/C: 67.3%
[4]
  viability, T/C: 5.75%
[5]
  viability, T/C: 3.42%
[6]
  viability, T/C: 2.91%
[7]
  viability, T/C: 105%
[8]
  viability, T/C: 102%
[9]
  viability, T/C: 89.7%
[10]
  viability, T/C: 9.63%
[11]
  viability, T/C: 3.67%
[12]
  viability, T/C: 2.2%
[13]
  viability, T/C: 72.3%
[14]
  viability, T/C: 79.5%
[15]
  viability, T/C: 63.5%
[16]
  viability, T/C: 6.76%
[17]
  viability, T/C: 2.84%
[18]
  viability, T/C: 1.01%

## Cn1cnc2c(F)c(Nc3ccc(Br)cc3Cl)c(C(=O)NOCCO)cc21 + CCN1CCN(Cc2ccc(Nc3ncc(F)c(-c4cc(F)c5nc(C)n(C(C)C)c5c4)n3)nc2)CC1
Second compound 0.01 µM
  IC50: 1130 nM
Second compound 0.0316 µM
  IC50: 920 nM
Second compound 0.1 µM
  IC50: 798 nM
Second compound 0.316 µM
  IC50: 601 nM
Second compound 1 µM
  IC50: 152 nM
Second compound 0.01 µM, first compound 0.00949 µM
  viability, T/C: 102%
Second compound 0.01 µM, first compound 0.03 µM
  viability, T/C: 79.5%
Second compound 0.01 µM, first compound 0.0949 µM
  viability, T/C: 77.7%
Second compound 0.01 µM, first compound 0.3 µM
  viability, T/C: 73.3%
Second compound 0.01 µM, first compound 0.949 µM
  viability, T/C: 55.1%
Second compound 0.01 µM, first compound 3 µM
  viability, T/C: 31.5%
Second compound 0.0316 µM, first compound 0.00949 µM
  viability, T/C: 83.7%
Second compound 0.0316 µM, first compound 0.03 µM
  viability, T/C: 76.3%
Second compound 0.0316 µM, first compound 0.0949 µM
  viability, T/C: 73.6%
Second compound 0.0316 µM, first compound 0.3 µM
  viability, T/C: 60.8%
Second compound 0.0316 µM, first compound 0.949 µM
  viability, T/C: 52%
Second compound 0.0316 µM, first compound 3 µM
  viability, T/C: 29.7%
Second compound 0.1 µM, first compound 0.00949 µM
  viability, T/C: 95.8%
Second compound 0.1 µM, first compound 0.03 µM
  viability, T/C: 73.6%
Second compound 0.1 µM, first compound 0.0949 µM
  viability, T/C: 81.3%
Second compound 0.1 µM, first compound 0.3 µM
  viability, T/C: 58.8%
Second compound 0.1 µM, first compound 0.949 µM
  viability, T/C: 52.4%
Second compound 0.1 µM, first compound 3 µM
  viability, T/C: 28.4%
Second compound 0.316 µM, first compound 0.00949 µM
  viability, T/C: 108%
Second compound 0.316 µM, first compound 0.03 µM
  viability, T/C: 89.8%
Second compound 0.316 µM, first compound 0.0949 µM
  viability, T/C: 75.5%
Second compound 0.316 µM, first compound 0.3 µM
  viability, T/C: 63.3%
Second compound 0.316 µM, first compound 0.949 µM
  viability, T/C: 51.1%
Second compound 0.316 µM, first compound 3 µM
  viability, T/C: 16.8%
Second compound 1 µM, first compound 0.00949 µM
  viability, T/C: 92.7%
Second compound 1 µM, first compound 0.03 µM
  viability, T/C: 69%
Second compound 1 µM, first compound 0.0949 µM
  viability, T/C: 58.9%
Second compound 1 µM, first compound 0.3 µM
  viability, T/C: 43.5%
Second compound 1 µM, first compound 0.949 µM
  viability, T/C: 18.8%
Second compound 1 µM, first compound 3 µM
  viability, T/C: 3.98%
